Experimental data reported in article PMC6073568, “Efficient Lead Finding, Activity Enhancement and Preliminary Selectivity Control of Nuclear Receptor Ligands Bearing a Phenanthridinone Skeleton” (International Journal of Molecular Sciences, 2018).

How the values were obtained:
[1] = target: T1, LXRα (Homo sapiens, UniProt Q13133); details: read-out: LXRα antagonistic activity (IC50); cited from earlier work
T1 construct: CMX-GAL4N-hLXRα-LBD; expressed in transfected cells; host or cells: HEK293
T1 sequence (Q13133 209-447 limits assumed): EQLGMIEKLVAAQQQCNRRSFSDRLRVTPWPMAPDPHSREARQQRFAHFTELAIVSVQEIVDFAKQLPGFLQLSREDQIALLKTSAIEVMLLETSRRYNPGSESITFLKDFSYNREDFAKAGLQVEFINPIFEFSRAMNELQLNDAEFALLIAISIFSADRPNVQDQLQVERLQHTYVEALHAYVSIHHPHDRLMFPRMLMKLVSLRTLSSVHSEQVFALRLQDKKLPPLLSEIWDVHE

[2] = target: T2, RORα (Homo sapiens, UniProt P35398); test: RORα inverse agonist reporter gene assay in HEK293; format: cell-based; details: new compound 43, read-out: RORα inverse agonistic activity (IC50)
T2 construct: expressed in transfected cells; host or cells: HEK293
T2 sequence (P35398 1-523): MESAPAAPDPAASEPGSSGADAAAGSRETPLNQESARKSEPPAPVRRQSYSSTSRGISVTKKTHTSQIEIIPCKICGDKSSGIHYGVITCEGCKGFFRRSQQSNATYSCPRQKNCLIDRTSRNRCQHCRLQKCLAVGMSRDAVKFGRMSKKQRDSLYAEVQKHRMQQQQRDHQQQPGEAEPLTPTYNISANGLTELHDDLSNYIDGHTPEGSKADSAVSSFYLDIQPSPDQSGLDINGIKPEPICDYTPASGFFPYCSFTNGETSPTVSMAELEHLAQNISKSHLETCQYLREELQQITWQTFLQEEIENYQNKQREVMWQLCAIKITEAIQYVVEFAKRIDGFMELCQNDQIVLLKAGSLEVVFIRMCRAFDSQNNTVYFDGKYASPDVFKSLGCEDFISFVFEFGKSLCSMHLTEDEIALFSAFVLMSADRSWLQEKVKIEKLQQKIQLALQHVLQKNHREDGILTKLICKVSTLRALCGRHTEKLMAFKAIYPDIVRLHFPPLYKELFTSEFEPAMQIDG

[3] = target: T3, RORβ (Homo sapiens, UniProt Q92753); test: RORβ inverse agonist reporter gene assay in HEK293; format: cell-based; details: new compound 43, read-out: RORβ inverse agonistic activity (IC50)
T3 construct: expressed in transfected cells; host or cells: HEK293
T3 sequence (Q92753 1-459 isoform Q92753-1): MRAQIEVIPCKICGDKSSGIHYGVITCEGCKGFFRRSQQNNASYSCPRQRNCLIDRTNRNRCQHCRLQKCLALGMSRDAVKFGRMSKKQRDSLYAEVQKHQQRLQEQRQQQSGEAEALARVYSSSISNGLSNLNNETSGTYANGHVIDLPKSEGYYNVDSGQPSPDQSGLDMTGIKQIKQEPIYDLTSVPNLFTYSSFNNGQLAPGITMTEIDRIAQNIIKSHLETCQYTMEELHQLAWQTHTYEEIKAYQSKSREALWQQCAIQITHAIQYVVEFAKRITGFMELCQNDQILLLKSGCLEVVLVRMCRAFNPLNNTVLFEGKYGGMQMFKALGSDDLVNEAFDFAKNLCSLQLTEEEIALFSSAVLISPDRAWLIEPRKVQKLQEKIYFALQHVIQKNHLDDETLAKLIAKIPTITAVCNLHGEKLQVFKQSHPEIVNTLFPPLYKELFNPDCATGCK

O=c1[nH]c2ccc(C(O)(C(F)(F)F)C(F)(F)F)cc2c2ccccc12 [Compound 1]
IC50 [1]: 5 µM

O=c1[nH]c2c(Cl)cc(C(O)(C(F)(F)F)C(F)(F)F)cc2c2ccccc12 [Compound 43, 4-Chloro-2-(1,1,1,3,3,3-hexafluoro-2-hydroxypropan-2-yl)phenanthridin-6(5H)-one]
IC50 [2]: > 20 µM | IC50 [3]: > 20 µM
